Measured values taken from ChEMBL document CHEMBL4819031, “Sesquiterpenoids from the Aerial Parts of Salvia plebeia with Inhibitory Activities on Proprotein Convertase Subtilisin/Kexin Type 9 Expression” (J Nat Prod, 2021).
Calls of active or inactive are those of the source. The rule behind the calls is not given here.

Columns and labels:
[1] = biological target: PCSK9/LDLR (Homo sapiens) (UniProt Q8NBP7+P01130); assay: Inhibition of PCSK9 (unknown origin) interaction with LDLR (unknown origin) by ELISA; format: protein assay
[2] = Down regulation of PCSK9 mRNA expression in human HepG2 cells incubated for 24 hrs by SYBR green dye-based qRT-PCR analysis; format: functional, cell-based; details: HepG2, 24 h
[3] = tested on: HepG2; assay: Down regulation of PCSK9 mRNA expression in human HepG2 cells at 50 uM incubated for 24 hrs by SYBR green dye-based qRT-PCR analysis; format: functional, cell-based
[4] = tested on: HepG2; assay: Down regulation of PCSK9 protein expression in human HepG2 cells at 10 to 50 uM incubated for 24 hrs by Western blotting analysis; format: functional, cell-based; details: dose 10-50 µM
[5] = tested on: HepG2; assay: Up regulation of LDLR protein expression in human HepG2 cells at 10 to 50 uM incubated for 24 hrs by Western blotting analysis; format: functional, cell-based; details: dose 10-50 µM

PCSK9/LDLR (Homo sapiens), sequence (P01130 22-860 partner limits assumed): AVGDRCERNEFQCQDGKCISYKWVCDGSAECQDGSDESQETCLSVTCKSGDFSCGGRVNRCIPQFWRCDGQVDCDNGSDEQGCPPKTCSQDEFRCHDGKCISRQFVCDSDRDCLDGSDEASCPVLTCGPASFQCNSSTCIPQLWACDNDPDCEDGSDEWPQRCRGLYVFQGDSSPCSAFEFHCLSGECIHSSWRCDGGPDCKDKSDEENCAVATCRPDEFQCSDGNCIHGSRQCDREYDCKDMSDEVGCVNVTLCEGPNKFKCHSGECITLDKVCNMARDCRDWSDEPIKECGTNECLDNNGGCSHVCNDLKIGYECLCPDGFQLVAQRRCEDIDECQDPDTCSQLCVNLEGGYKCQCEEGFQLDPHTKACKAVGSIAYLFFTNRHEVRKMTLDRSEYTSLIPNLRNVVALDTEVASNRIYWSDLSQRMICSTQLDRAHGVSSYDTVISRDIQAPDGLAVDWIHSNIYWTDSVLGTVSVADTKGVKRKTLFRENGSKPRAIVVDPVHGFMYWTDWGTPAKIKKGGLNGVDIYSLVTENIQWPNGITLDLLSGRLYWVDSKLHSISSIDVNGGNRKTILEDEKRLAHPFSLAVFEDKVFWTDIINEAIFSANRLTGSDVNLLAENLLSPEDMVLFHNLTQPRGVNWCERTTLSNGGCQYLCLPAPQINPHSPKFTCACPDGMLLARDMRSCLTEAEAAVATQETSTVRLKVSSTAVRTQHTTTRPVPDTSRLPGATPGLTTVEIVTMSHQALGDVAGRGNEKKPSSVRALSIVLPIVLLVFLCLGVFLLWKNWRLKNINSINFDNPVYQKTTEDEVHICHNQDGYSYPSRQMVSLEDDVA
PCSK9/LDLR (Homo sapiens), sequence (Q8NBP7 31-152 limits assumed): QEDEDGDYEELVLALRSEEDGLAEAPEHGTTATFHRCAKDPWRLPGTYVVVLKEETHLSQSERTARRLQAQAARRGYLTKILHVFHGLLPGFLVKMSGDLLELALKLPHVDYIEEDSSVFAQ
PCSK9/LDLR (Homo sapiens), sequence (Q8NBP7 153-692 limits assumed): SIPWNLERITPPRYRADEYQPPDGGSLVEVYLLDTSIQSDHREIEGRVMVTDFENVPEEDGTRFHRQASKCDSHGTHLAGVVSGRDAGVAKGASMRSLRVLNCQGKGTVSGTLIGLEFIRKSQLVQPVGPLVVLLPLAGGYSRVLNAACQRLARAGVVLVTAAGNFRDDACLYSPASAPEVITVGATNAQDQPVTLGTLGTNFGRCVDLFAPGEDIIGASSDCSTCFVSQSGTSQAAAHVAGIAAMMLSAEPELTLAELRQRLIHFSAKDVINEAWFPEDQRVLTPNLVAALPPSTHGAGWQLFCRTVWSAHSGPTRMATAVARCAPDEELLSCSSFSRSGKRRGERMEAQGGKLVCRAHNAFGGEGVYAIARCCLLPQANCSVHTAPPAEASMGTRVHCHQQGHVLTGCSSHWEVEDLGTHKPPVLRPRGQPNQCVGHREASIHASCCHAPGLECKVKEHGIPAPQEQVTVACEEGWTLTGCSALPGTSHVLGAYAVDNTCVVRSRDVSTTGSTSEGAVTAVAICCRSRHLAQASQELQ

SMILES | inhibition [1] | also measured
CO[C@@]12C[C@]3(C)[C@H](O)C[C@H](OC(C)=O)[C@H](C)[C@H]3CC1=C(C)C(=O)O2 | inactive | –
COc1ccc2cc3[n+](cc2c1OC)CCc1cc2c(cc1-3)OCO2 [BERBERINE CHLORIDE] | – | IC50 [2]: 13.8 µM
CC(=O)O[C@H]1C(=O)C=C(C)[C@H]2CC3=C(C)C(=O)O[C@]3(O)C[C@@]21C | inactive | –
COC(=O)[C@H](C)[C@H]1C[C@]2(O)C(C)=CC(=O)[C@H](OC(C)=O)[C@]2(C)CC1=O | inactive | –
CO[C@]12C[C@@]3(C)[C@H](CC1=C(C)C(=O)O2)C(C)=CC(=O)[C@@H]3OC(C)=O | inactive | –
CC1=C2C[C@@H]3[C@@H](C)C(=O)C=C[C@@]3(C)C[C@@]2(O)OC1=O | inactive | Activity [3]: Active; Activity [4]: Active; Activity [5]: Active; IC50 [2]: 27.8 µM
CC(=O)O[C@@H]1C(=O)C=C(C)[C@]2(O)C/C(=C(\C)C(=O)O)C(O)=C[C@]12C | inactive | –
CC(=O)O[C@H]1C[C@H](O)[C@]2(C)C[C@@H]3OC(=O)C(C)=C3C[C@H]2[C@@H]1C | inactive | –
CC(=O)O[C@H]1C[C@@H](O)[C@@]2(C)C[C@H](O)/C(=C(/C)C(=O)O)C[C@@H]2[C@H]1C | inactive | –
CC(=O)O[C@H]1C[C@@H](O)[C@@]2(C)C[C@@]3(O)OC(=O)C(C)=C3C[C@@H]2[C@H]1C | inactive | –
CO[C@]12C[C@@]3(C)[C@H](OC(C)=O)C(=O)C=C(C)[C@@H]3CC1=C(C)C(=O)O2 | inactive | Activity [3]: Active; IC50 [2]: 25.2 µM
CO[C@@H]1CC(=O)[C@H](C)[C@H]2C/C(=C(\C)C(=O)O)C[C@@]21C | inactive | Activity [3]: Active; Activity [4]: Active; Activity [5]: Active; IC50 [2]: 24.4 µM
CC(=O)O[C@H]1C[C@@H](O)[C@@]2(C)C=C3OC(=O)C(C)=C3C[C@@H]2[C@H]1C | inactive | –

The next lines start with results.

inhibition [1] | SMILES | also measured
inactive | CC1=C2C[C@@H]3[C@@H](C)[C@@H](O)C[C@@H](O)[C@@]3(C)C=C2OC1=O | –
inactive | COc1c(O)cc2oc(-c3ccc(O)cc3)cc(=O)c2c1O | –
inactive | COc1c(O)cc2c(c1O)C(=O)C[C@@H](c1ccc(O)cc1)O2 | –
inactive | CC(=O)O[C@H]1C(=O)C=C(C)[C@H]2CC3=C(C)C(=O)OC3=C[C@@]21C | –
inactive | CC(=O)O[C@@H]1C(=O)C=C(C)[C@@H]2CC3=C(C)C(=O)O[C@@H]3C[C@@]12C | –
inactive | CC1=CC(=O)[C@H](O)[C@@]2(C)C=C3OC(=O)C(C)=C3C[C@H]12 | –
inactive | CC(=O)O[C@H]1C(=O)C=C(C)[C@H]2CC3=C(C)C(=O)O[C@@H]3C[C@@]21C | –
